Our source for the TGI values is PubChem BioAssay (NCI).

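Test compounds were applied to cells in 96-well plates for 48 hours at 5 doses. At the TGI there is no net growth.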

The first test concerns DMS 114 small cell lung. The experiment in a line: NCI anticancer screen, dose series, 48 h.
With `O=C1N[C@@H]2CCC[C@@H]2[C@@H]1c1ccc(Cl)cc1`, the TGI was > 100 µM.

For the compound `CC1(C)O[C@H]2OC3CCC(=O)CC3(O)[C@H]2O1` (some centres undefined), the TGI was > 100 µM.

The subject of another test is NCI/ADR-RES ovarian. The experiment in a line: NCI anticancer screen, dose series, 48 h.
Consider `CC1(C)O[C@H]2OC3CCC(=O)CC3(O)[C@H]2O1` (some centres undefined), for which the TGI was > 100 µM.

On to `Cc1cc2c(cc1C)NC1=C(N2)OC(c2c[nH]c3ccc(COc4ccccc4)cc23)C1=O` (centres undefined), for which the TGI is > 100 µM.

In turn, `O=C(O)C1=NN(c2ccc(S(=O)(=O)O)cc2)C2(C1)C(Cl)C(=O)N2c1nc2ccccc2s1` (centres undefined) showed a TGI of 56.2 µM.

The next test has as its system MDA-MB-435. The experiment in a line: NCI anticancer screen, dose series, 48 h.
On to `CC1(C)O[C@H]2OC3CCC(=O)CC3(O)[C@H]2O1` (some centres undefined), for which the TGI is > 100 µM.

For the compound `Cc1cc2c(cc1C)NC1=C(N2)OC(c2c[nH]c3ccc(COc4ccccc4)cc23)C1=O` (centres undefined), the TGI is > 100 µM.

`O=C(O)C1=NN(c2ccc(S(=O)(=O)O)cc2)C2(C1)C(Cl)C(=O)N2c1nc2ccccc2s1` (centres undefined) had a TGI of 32.6 µM.

The next test has as its system A549 NSCLC. Briefly: NCI anticancer screen, dose series, 48 h.
As for `O=C1N[C@@H]2CCC[C@@H]2[C@@H]1c1ccc(Cl)cc1`, the TGI was > 100 µM.

For `CC1(C)O[C@H]2OC3CCC(=O)CC3(O)[C@H]2O1` (some centres undefined), the TGI is > 100 µM.

Regarding `Cc1cc2c(cc1C)NC1=C(N2)OC(c2c[nH]c3ccc(COc4ccccc4)cc23)C1=O` (centres undefined), the TGI is > 100 µM.

In the case of `O=C(O)C1=NN(c2ccc(S(=O)(=O)O)cc2)C2(C1)C(Cl)C(=O)N2c1nc2ccccc2s1` (centres undefined), the TGI was 35.2 µM.

A further test has as its system HCT-15 colon. The experiment in a line: NCI anticancer screen, dose series, 48 h.
`O=C1N[C@@H]2CCC[C@@H]2[C@@H]1c1ccc(Cl)cc1`: the TGI is > 100 µM.

`CC1(C)O[C@H]2OC3CCC(=O)CC3(O)[C@H]2O1` (some centres undefined): the TGI was > 100 µM.

With `Cc1cc2c(cc1C)NC1=C(N2)OC(c2c[nH]c3ccc(COc4ccccc4)cc23)C1=O` (centres undefined), the TGI was > 100 µM.

In turn, `O=C(O)C1=NN(c2ccc(S(=O)(=O)O)cc2)C2(C1)C(Cl)C(=O)N2c1nc2ccccc2s1` (centres undefined) showed a TGI of 42.4 µM.

A further test relates to MALME-3M melanoma. The experiment in a line: NCI anticancer screen, dose series, 48 h.
On to `CC1(C)O[C@H]2OC3CCC(=O)CC3(O)[C@H]2O1` (some centres undefined), for which the TGI was > 100 µM.

As for `Cc1cc2c(cc1C)NC1=C(N2)OC(c2c[nH]c3ccc(COc4ccccc4)cc23)C1=O` (centres undefined), the TGI is > 100 µM.

Regarding `O=C(O)C1=NN(c2ccc(S(=O)(=O)O)cc2)C2(C1)C(Cl)C(=O)N2c1nc2ccccc2s1` (centres undefined), the TGI was determined as 38.7 µM.

For another test, the system named is DU-145 prostate. The experiment in a line: NCI anticancer screen, dose series, 48 h.
As to `CC1(C)O[C@H]2OC3CCC(=O)CC3(O)[C@H]2O1` (some centres undefined), the TGI was > 100 µM.

`Cc1cc2c(cc1C)NC1=C(N2)OC(c2c[nH]c3ccc(COc4ccccc4)cc23)C1=O` (centres undefined): the TGI is > 100 µM.

On to `O=C(O)C1=NN(c2ccc(S(=O)(=O)O)cc2)C2(C1)C(Cl)C(=O)N2c1nc2ccccc2s1` (centres undefined), for which the TGI was 55.9 µM.

The next test concerns KM12 colon. Briefly: NCI anticancer screen, dose series, 48 h.
For `O=C1N[C@@H]2CCC[C@@H]2[C@@H]1c1ccc(Cl)cc1`, the TGI was > 100 µM.

For the compound `CC1(C)O[C@H]2OC3CCC(=O)CC3(O)[C@H]2O1` (some centres undefined), the TGI is > 100 µM.

`Cc1cc2c(cc1C)NC1=C(N2)OC(c2c[nH]c3ccc(COc4ccccc4)cc23)C1=O` (centres undefined): the TGI was > 100 µM.

Compound `O=C(O)C1=NN(c2ccc(S(=O)(=O)O)cc2)C2(C1)C(Cl)C(=O)N2c1nc2ccccc2s1` (centres undefined) came in with a TGI of 34.1 µM.

The next test deals with U251 CNS. Briefly: NCI anticancer screen, dose series, 48 h.
On to `CC1(C)O[C@H]2OC3CCC(=O)CC3(O)[C@H]2O1` (some centres undefined), for which the TGI is > 100 µM.

As to `Cc1cc2c(cc1C)NC1=C(N2)OC(c2c[nH]c3ccc(COc4ccccc4)cc23)C1=O` (centres undefined), the TGI was > 100 µM.

For `O=C(O)C1=NN(c2ccc(S(=O)(=O)O)cc2)C2(C1)C(Cl)C(=O)N2c1nc2ccccc2s1` (centres undefined), the TGI was 32.1 µM.

A further test deals with M14 melanoma. Briefly: NCI anticancer screen, dose series, 48 h.
In the case of `O=C1N[C@@H]2CCC[C@@H]2[C@@H]1c1ccc(Cl)cc1`, the TGI is > 100 µM.

As to `CC1(C)O[C@H]2OC3CCC(=O)CC3(O)[C@H]2O1` (some centres undefined), the TGI is > 100 µM.

Consider `Cc1cc2c(cc1C)NC1=C(N2)OC(c2c[nH]c3ccc(COc4ccccc4)cc23)C1=O` (centres undefined), for which the TGI was > 100 µM.

For `O=C(O)C1=NN(c2ccc(S(=O)(=O)O)cc2)C2(C1)C(Cl)C(=O)N2c1nc2ccccc2s1` (centres undefined), the TGI was determined as 30.3 µM.

Another test has as its system SF-539 CNS. The experiment in a line: NCI anticancer screen, dose series, 48 h.
Turning to `O=C1N[C@@H]2CCC[C@@H]2[C@@H]1c1ccc(Cl)cc1`, the TGI was > 100 µM.

As for `CC1(C)O[C@H]2OC3CCC(=O)CC3(O)[C@H]2O1` (some centres undefined), the TGI was > 100 µM.

`Cc1cc2c(cc1C)NC1=C(N2)OC(c2c[nH]c3ccc(COc4ccccc4)cc23)C1=O` (centres undefined) displayed a TGI of 95.3 µM.

`O=C(O)C1=NN(c2ccc(S(=O)(=O)O)cc2)C2(C1)C(Cl)C(=O)N2c1nc2ccccc2s1` (centres undefined) showed a TGI of 12.6 µM.

The next test concerns SK-MEL-2 melanoma. The experiment in a line: NCI anticancer screen, dose series, 48 h.
For the compound `CC1(C)O[C@H]2OC3CCC(=O)CC3(O)[C@H]2O1` (some centres undefined), the TGI is > 100 µM.

Turning to `Cc1cc2c(cc1C)NC1=C(N2)OC(c2c[nH]c3ccc(COc4ccccc4)cc23)C1=O` (centres undefined), the TGI is > 100 µM.

In turn, `O=C(O)C1=NN(c2ccc(S(=O)(=O)O)cc2)C2(C1)C(Cl)C(=O)N2c1nc2ccccc2s1` (centres undefined) yielded a TGI of 32 µM.

The test system of the next test is SK-MEL-28 melanoma. The experiment in a line: NCI anticancer screen, dose series, 48 h.
In the case of `O=C1N[C@@H]2CCC[C@@H]2[C@@H]1c1ccc(Cl)cc1`, the TGI was > 100 µM.

With `CC1(C)O[C@H]2OC3CCC(=O)CC3(O)[C@H]2O1` (some centres undefined), the TGI was > 100 µM.

For `Cc1cc2c(cc1C)NC1=C(N2)OC(c2c[nH]c3ccc(COc4ccccc4)cc23)C1=O` (centres undefined), the TGI is > 100 µM.

Take `O=C(O)C1=NN(c2ccc(S(=O)(=O)O)cc2)C2(C1)C(Cl)C(=O)N2c1nc2ccccc2s1` (centres undefined): the TGI came out at 46.3 µM.

A further test concerns HCT-116 colon. The experiment in a line: NCI anticancer screen, dose series, 48 h.
Turning to `CC1(C)O[C@H]2OC3CCC(=O)CC3(O)[C@H]2O1` (some centres undefined), the TGI was > 100 µM.

Regarding `Cc1cc2c(cc1C)NC1=C(N2)OC(c2c[nH]c3ccc(COc4ccccc4)cc23)C1=O` (centres undefined), the TGI was > 100 µM.

Take `O=C(O)C1=NN(c2ccc(S(=O)(=O)O)cc2)C2(C1)C(Cl)C(=O)N2c1nc2ccccc2s1` (centres undefined): the TGI is 33.1 µM.

Another test has as its system PC-3 prostate. The experiment in a line: NCI anticancer screen, dose series, 48 h.
Take `CC1(C)O[C@H]2OC3CCC(=O)CC3(O)[C@H]2O1` (some centres undefined): the TGI is > 100 µM.

Take `Cc1cc2c(cc1C)NC1=C(N2)OC(c2c[nH]c3ccc(COc4ccccc4)cc23)C1=O` (centres undefined): the TGI was > 100 µM.

The compound `O=C(O)C1=NN(c2ccc(S(=O)(=O)O)cc2)C2(C1)C(Cl)C(=O)N2c1nc2ccccc2s1` (centres undefined) gave a TGI of 31.2 µM.

The next test deals with T-47D breast. Briefly: NCI anticancer screen, dose series, 48 h.
`CC1(C)O[C@H]2OC3CCC(=O)CC3(O)[C@H]2O1` (some centres undefined): the TGI was > 100 µM.

In the case of `Cc1cc2c(cc1C)NC1=C(N2)OC(c2c[nH]c3ccc(COc4ccccc4)cc23)C1=O` (centres undefined), the TGI was > 100 µM.

Compound `O=C(O)C1=NN(c2ccc(S(=O)(=O)O)cc2)C2(C1)C(Cl)C(=O)N2c1nc2ccccc2s1` (centres undefined) gave a TGI of 44.8 µM.

A further test concerns CCRF-CEM leukemia. Briefly: NCI anticancer screen, dose series, 48 h.
`O=C1N[C@@H]2CCC[C@@H]2[C@@H]1c1ccc(Cl)cc1`: the TGI was > 100 µM.
